Reference: PubChem BioAssay AID248 (DTP/NCI, 2004)
Inconclusive results and toxic doses are left out.

Test system: L1210 leukemia ip in BDF1 mice, survival T/C
Assay: NCI In Vivo Anticancer Drug Screen. Data for tumor model L1210 Leukemia (intraperitoneal) in B6D2F1 (BDF1) mice
Conditions: endpoint: mean survival time, higher = longer survival
In short: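 Antitumor effect is assessed in tumor-bearing animals. Survival in the compound arm is compared with a vehicle-dosed control arm and expressed as their quotient.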

[1] = dose: 50.0 mg/kg/injection, schedule: Q01DX001 (ip), vehicle: saline
[2] = dose: 100.0 mg/kg/injection, schedule: Q01DX001 (ip), vehicle: saline
[3] = dose: 200.0 mg/kg/injection, schedule: Q01DX001 (ip), vehicle: saline
[4] = dose: 400.0 mg/kg/injection, schedule: Q01DX001 (ip), vehicle: saline
[5] = dose: 50.0 mg/kg/injection, schedule: Q04DX002 (ip), vehicle: Klucel (hydroxypropylcellulose) (HPC)
[6] = dose: 100.0 mg/kg/injection, schedule: Q04DX002 (ip), vehicle: Klucel (hydroxypropylcellulose) (HPC)
[7] = dose: 100.0 mg/kg/injection, schedule: Q01DX009 (ip), vehicle: other
[8] = dose: 200.0 mg/kg/injection, schedule: Q01DX009 (ip), vehicle: other
[9] = dose: 400.0 mg/kg/injection, schedule: Q01DX009 (ip), vehicle: other
[10] = dose: 100.0 mg/kg/injection, schedule: Q01DX009 (ip), vehicle: saline with Tween-80
[11] = dose: 200.0 mg/kg/injection, schedule: Q01DX009 (ip), vehicle: saline with Tween-80
[12] = dose: 100.0 mg/kg/injection, schedule: Q04DX003 (ip), vehicle: saline with Tween-80
[13] = dose: 200.0 mg/kg/injection, schedule: Q04DX003 (ip), vehicle: saline with Tween-80

For O=C(CCCC(=O)N/N=C/c1ccc(Cl)c([N+](=O)[O-])c1)N/N=C\c1ccc(Cl)c([N+](=O)[O-])c1, the T/C [1] was 96 % of control, the T/C [2] was 102 % of control and the T/C [3] was 96 % of control. For the same compound, the T/C [4] was 98 % of control.
With CCOc1ccc(/C=C2\N=C(c3cccc(Cl)c3)OC2=O)cc1 the T/C (dose: 100.0 mg/kg/injection, schedule: Q04DX002 (ip), vehicle: saline with Tween-80) was 93 % of control, the T/C (dose: 200.0 mg/kg/injection, schedule: Q04DX002 (ip), vehicle: saline with Tween-80) was 93 % of control and the T/C (dose: 400.0 mg/kg/injection, schedule: Q04DX002 (ip), vehicle: saline with Tween-80) was 96 % of control.
For C1CC2CC1C1CNCC21 (centres undefined), the T/C (dose: 5.0 mg/kg/injection, schedule: Q01DX001 (ip), vehicle: saline) was 105 % of control, the T/C (dose: 10.0 mg/kg/injection, schedule: Q01DX001 (ip), vehicle: saline) was 97 % of control and the T/C (dose: 20.0 mg/kg/injection, schedule: Q01DX001 (ip), vehicle: saline) was 105 % of control. For the same compound, the T/C (dose: 40.0 mg/kg/injection, schedule: Q01DX001 (ip), vehicle: saline) was 100 % of control, the T/C [5] was 97 % of control and the T/C (dose: 80.0 mg/kg/injection, schedule: Q01DX001 (ip), vehicle: saline) was 91 % of control. The T/C [6] was 97 % of control.
With CCOP(=O)(OCC)C(C)C#N (centres undefined) the T/C (dose: 15.0 mg/kg/injection, schedule: Q01DX001 (ip), vehicle: saline) was 95 % of control and the T/C (dose: 30.0 mg/kg/injection, schedule: Q01DX001 (ip), vehicle: saline) was 100 % of control.
In the case of O=C1CCCN(c2ccccc2)c2ccccc21, the T/C [7] was 100 % of control, the T/C (dose: 100.0 mg/kg/injection, schedule: Q04DX003 (ip), vehicle: other) was 98 % of control and the T/C [8] was 98 % of control. For the same compound, the T/C (dose: 200.0 mg/kg/injection, schedule: Q04DX003 (ip), vehicle: other) was 109 % of control, the T/C [9] was 96 % of control and the T/C (dose: 400.0 mg/kg/injection, schedule: Q04DX003 (ip), vehicle: other) was 104 % of control.
In the case of Cc1cc(OC(=O)Nc2cc(C(F)(F)F)ccc2Cl)ccc1Cl, the T/C (dose: 100.0 mg/kg/injection, schedule: Q01DX009 (ip), vehicle: Klucel (hydroxypropylcellulose) (HPC)) was 98 % of control, the T/C (dose: 200.0 mg/kg/injection, schedule: Q01DX009 (ip), vehicle: Klucel (hydroxypropylcellulose) (HPC)) was 104 % of control and the T/C (dose: 400.0 mg/kg/injection, schedule: Q01DX009 (ip), vehicle: Klucel (hydroxypropylcellulose) (HPC)) was 95 % of control.
For C1CCC(N(CCN(C2CCCCC2)C2CCCCC2)C2CCCCC2)CC1, the T/C (dose: 25.0 mg/kg/injection, schedule: Q04DX013 (ip), vehicle: carboxymethylcellulose (CMC)) was 100 % of control, the T/C (dose: 50.0 mg/kg/injection, schedule: Q04DX013 (ip), vehicle: carboxymethylcellulose (CMC)) was 94 % of control and the T/C (dose: 100.0 mg/kg/injection, schedule: Q04DX013 (ip), vehicle: carboxymethylcellulose (CMC)) was 96 % of control.
O=c1c(N=Nc2ccc(Cl)cc2)c(O)n(-c2ccccc2)c(=S)n1-c1ccccc1 was tested, and the T/C (dose: 37.5 mg/kg/injection, schedule: Q01DX001 (ip), vehicle: other) was 94 % of control, the T/C (dose: 75.0 mg/kg/injection, schedule: Q01DX001 (ip), vehicle: other) was 107 % of control and the T/C (dose: 150.0 mg/kg/injection, schedule: Q01DX001 (ip), vehicle: other) was 96 % of control.
For CC(NP1(=O)OCC(C)(N=Cc2ccccc2)CO1)c1ccccc1 (centres undefined), the T/C [1] was 104 % of control, the T/C [2] was 98 % of control and the T/C [3] was 104 % of control. The T/C [4] was 95 % of control.
O=c1ccn(C2CC(O)C(CO)C2)c(=S)[nH]1 (centres undefined) was tested, and the T/C (dose: 50.0 mg/kg/injection, schedule: Q01DX009 (ip), vehicle: saline with Tween-80) was 103 % of control, the T/C [10] was 107 % of control and the T/C [11] was 93 % of control.
For Cc1cccc(NC(=S)N(C)C)c1, the T/C [10] was 99 % of control, the T/C [11] was 101 % of control and the T/C (dose: 400.0 mg/kg/injection, schedule: Q01DX009 (ip), vehicle: saline with Tween-80) was 94 % of control.
Cc1cccc(NC(=S)Nc2ccc(-c3ccc(NC(=S)Nc4cccc(C)c4)cc3)cc2)c1 was tested, and the T/C [7] was 104 % of control, the T/C [8] was 106 % of control and the T/C [9] was 96 % of control.
With Cc1ccc(C(=O)n2c(Cl)c(C=O)c3ccccc32)cc1 the T/C [5] was 94 % of control, the T/C [6] was 97 % of control and the T/C (dose: 200.0 mg/kg/injection, schedule: Q04DX002 (ip), vehicle: Klucel (hydroxypropylcellulose) (HPC)) was 94 % of control.
With Cc1cc[c]([Hg][I])cc1 the T/C (dose: 6.25 mg/kg/injection, schedule: Q01DX009 (ip), vehicle: Klucel (hydroxypropylcellulose) (HPC)) was 93 % of control, the T/C (dose: 12.5 mg/kg/injection, schedule: Q01DX009 (ip), vehicle: Klucel (hydroxypropylcellulose) (HPC)) was 94 % of control and the T/C (dose: 25.0 mg/kg/injection, schedule: Q04DX002 (ip), vehicle: Klucel (hydroxypropylcellulose) (HPC)) was 87 % of control.
In the case of COC(=O)Nc1ccc2nc(NC(=O)OC)[nH]c2c1, the T/C (dose: 20.0 mg/kg/injection, schedule: Q01DX009 (ip), vehicle: other) was 97 % of control, the T/C (dose: 40.0 mg/kg/injection, schedule: Q01DX009 (ip), vehicle: other) was 101 % of control and the T/C (dose: 80.0 mg/kg/injection, schedule: Q01DX009 (ip), vehicle: other) was 104 % of control.
For NNc1ccc2ccccc2n1, the T/C (dose: 5.0 mg/kg/injection, schedule: Q01DX009 (ip), vehicle: saline) was 95 % of control, the T/C (dose: 5.0 mg/kg/injection, schedule: Q04DX003 (ip), vehicle: saline with Tween-80) was 113 % of control and the T/C (dose: 10.0 mg/kg/injection, schedule: Q01DX009 (ip), vehicle: saline) was 97 % of control. The T/C (dose: 10.0 mg/kg/injection, schedule: Q04DX003 (ip), vehicle: saline with Tween-80) was 101 % of control, the T/C (dose: 20.0 mg/kg/injection, schedule: Q01DX009 (ip), vehicle: saline) was 97 % of control and the T/C (dose: 20.0 mg/kg/injection, schedule: Q04DX003 (ip), vehicle: saline with Tween-80) was 101 % of control.
With CC12C(c3ccccc3)=C(c3ccccc3)C(C)(C3C(=O)OC(=O)C31)C1C(=O)OC(=O)C12 (centres undefined) the T/C (dose: 100.0 mg/kg/injection, schedule: Q01DX001 (ip), vehicle: Klucel (hydroxypropylcellulose) (HPC)) was 88 % of control, the T/C (dose: 200.0 mg/kg/injection, schedule: Q01DX001 (ip), vehicle: Klucel (hydroxypropylcellulose) (HPC)) was 100 % of control and the T/C (dose: 400.0 mg/kg/injection, schedule: Q01DX001 (ip), vehicle: Klucel (hydroxypropylcellulose) (HPC)) was 100 % of control.
With CC(C)N=C(N)c1ccc(NC(=O)c2ccc(C(=O)Nc3ccc(C(N)=NC(C)C)cc3)cc2)cc1 the T/C (dose: 0.12 mg/kg/injection, schedule: Q01DX Z (ip), vehicle: water) was 101 % of control, the T/C (dose: 0.25 mg/kg/injection, schedule: Q01DX Z (ip), vehicle: water) was 108 % of control and the T/C (dose: 0.5 mg/kg/injection, schedule: Q01DX Z (ip), vehicle: water) was 113 % of control. For the same compound, the T/C (dose: 1.0 mg/kg/injection, schedule: Q01DX Z (ip), vehicle: water) was 162 % of control, the T/C (dose: 1.25 mg/kg/injection, schedule: Q01DX Z (ip), vehicle: other) was 237 % of control and the T/C (dose: 2.5 mg/kg/injection, schedule: Q01DX Z (ip), vehicle: other) was 172 % of control. For the same compound, the T/C (dose: 5.0 mg/kg/injection, schedule: Q01DX Z (ip), vehicle: other) was 118 % of control, the T/C (dose: 62.0 mg/kg/injection, schedule: Q01DX Z (oral), vehicle: alkali diluted with CMC) was 104 % of control and the T/C (dose: 125.0 mg/kg/injection, schedule: Q01DX Z (oral), vehicle: alkali diluted with CMC) was 93 % of control. The T/C (dose: 250.0 mg/kg/injection, schedule: Q01DX Z (oral), vehicle: alkali diluted with CMC) was 96 % of control and the T/C (dose: 500.0 mg/kg/injection, schedule: Q01DX Z (oral), vehicle: alkali diluted with CMC) was 90 % of control.
NC(=O)c1ncn(C2CCCC2O)c1N (centres undefined) was tested, and the T/C [2] was 91 % of control, the T/C [3] was 102 % of control and the T/C [4] was 86 % of control.
With NC(=O)c1nccnc1C(N)=O the T/C (dose: 100.0 mg/kg/injection, schedule: Q04DX003 (ip), vehicle: Klucel (hydroxypropylcellulose) (HPC)) was 101 % of control, the T/C [12] was 96 % of control and the T/C (dose: 200.0 mg/kg/injection, schedule: Q04DX003 (ip), vehicle: Klucel (hydroxypropylcellulose) (HPC)) was 101 % of control. For the same compound, the T/C [13] was 96 % of control, the T/C (dose: 400.0 mg/kg/injection, schedule: Q04DX003 (ip), vehicle: Klucel (hydroxypropylcellulose) (HPC)) was 93 % of control and the T/C (dose: 400.0 mg/kg/injection, schedule: Q04DX003 (ip), vehicle: saline with Tween-80) was 96 % of control.
In the case of C=CCN(CC=C)CCNc1nc(C(Cl)(Cl)Cl)nc2ccc(Cl)cc12, the T/C [12] was 102 % of control and the T/C [13] was 87 % of control.
